From patent US10301292B2, “Bicyclic compound” (Takeda Pharmaceutical Company Limited, priority 2014, dated 2019)

Key:
[1] = tested on: collagen I gene expression in the liver; assay: Effect on liver fibrosis caused by non-alcoholic steatohepatitis (liver collagen I gene expression); format: in vivo; conditions: LDL receptor deficient mouse, choline-deficient amino acid diet; oral once per day for 3 weeks; normalized by GAPDH; P<0.05 vs. control (FIG. 1)
Source text: The effect of the present compound on liver fibrosis caused by non-alcoholic steatohepatitis was verified by the following method.
For efficacy evaluation of the antifibrotic action, 9-week-old, male, homo low-density lipoprotein receptor deficient mouse was used. The low-density lipoprotein receptor deficient mouse was purchased from Jackson Laboratories (Bar Harbor, Me., USA) and bred in Takeda Pharmaceutical Industry. To induce non-alcoholic steatohepatitis, a choline-deficient amino acid diet (A08111307, Research Diets, New Brunswick, N.J., USA) was fed.
Before administration of the test compound (specifically, compound shown in Example 98), a choline-deficient amino acid diet was fed for one week, and the drug administration was started. […]
After administration for 3 weeks, the mouse was sacrificed by euthanasia under isoflurane anesthesia under non-fasting and the liver was removed. […] Using RNeasy Mini Kit (Qiagen, Valencia, Calif., USA), the total RNA was purified, cDNA was prepared using High Capacity cDNA Reverse Transcription Kit (PN4368814, Applied Biosystems, Foster City, Calif., USA), and collagen I expression was quantified (collagen type I alpha 1, Part Number 4351370, Applied Biosystems) by the quantitative PCR method (TaqMan Gene Expression Master Mix, PN4369016, Applied Biosystems). […]

HCT116 cells = assay: Growth inhibitory activity on HCT116 cell (CellTiter-Glo); format: cell-based; conditions: Homo sapiens, HCT-116, 72 h, table head: 10 μM (text b2498: 1 μM), 3 days incubation, read-out: HCT116 cell proliferation inhibitory rate (%) at 10 μM
Outline: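 HCT116 cells in RPMI with 2% FBS, 900 cells/well, treated the day after seeding and incubated 3 days at 37 °C, 5% CO2. Viability read by CellTiter-Glo luminescence. Percent inhibition calculated relative to untreated wells, with cell-free wells subtracted as background.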

[2] = tested on: human renal cancer cell line 786-O; assay: Antitumor action on human renal cancer cell line 786-O tumor bearing mouse; format: in vivo; conditions: oral, 28 days, 786-O tumor bearing BALB/c nude mouse
Experimental: The antitumor action of the compound of the present invention on human renal cancer cell line 786-O tumor bearing mouse was evaluated by the following method.
Human renal cancer cell line 786-O (purchased from ATCC (American Type Culture Collection)) was transplanted to 6-week-old BALB/c female nude mouse (Shanghai SINO-British SIPPR/BK Lab Animal Ltd) at 3.0×10^6 cells by subcutaneous injection. After transplantation, the engrafted tumor was observed, the tumor diameter was measured on day 10 post-transplantation, and the tumor volume was calculated by the following formula. tumor volume=major axis×minor axis×minor axis×(1/2)
The mice having engrafted tumor with a volume size up to 150 mm^3 were selected and used for the experiment (8 per group). The test compound was suspended in 0.5% methylcellulose solution, and orally administered for 28 days at the dose and number of administration shown in the following Table. Finally, for the measurement of the drug effect, the tumor volume was calculated from the tumor diameter of the day before the start of the administration and the final day of the administration, and the tumor growth of the test compound administration group compared to that of the control administration group (T/C) was calculated by the following formula. T/C (%)=(tumor volume after completion of administration in test compound administration group−tumor volume before start of administration in test compound administration group)/(tumor volume after completion of administration in control administration group−tumor volume before start of administration in control administration group))×100
T/C (%) relative to human renal cancer cell line 786-O tumor bearing mouse at each dose and number of administration of the test compound (specifically, compound shown in Example 98) is shown below.

CC(NC(N)=O)c1ccc2nc(-c3ccc(Oc4cccc(OCC5CC5)c4)nc3)oc2c1 (centres unmarked) [Example 98, 1-(1-(2-(6-(3-(cyclopropylmethoxy)phenoxy)pyridin-3-yl)-1,3-benzoxazol-6-yl)ethyl)urea]
expression level of collagen I gene in the liver of a non-alcoholic steatohepatitis model [1]: significantly suppressed
inhibition at 10 µM (HCT116 cells): 25%
T/C (%) ([2]; 0.3 mg/kg, 2 times per day): 50.6%
T/C (%) ([2]; 1 mg/kg, 2 times per day): 37.0%
T/C (%) ([2]; 3 mg/kg, 2 times per day): 31.1%
T/C (%) ([2]; 10 mg/kg, 2 times per day): 4.5%
T/C (%) ([2]; 20 mg/kg, 1 time per day): 19.0%
T/C (%) ([2]; 30 mg/kg, 2 times per day): 0.5%
